Experimental data published in patent US8088819B2, “Derivatives of substituted 3-phenyl-1-(phenylthienyl)propan-1-ones and of 3-phenyl-1-(phenylfuranyl) propan-1-ones, preparation and use” (priority 2006, dated 2012).

Assays:
hPPARdelta [1] = biological target: T1, hPPARdelta (Homo sapiens, UniProt Q03181); test: PPAR activation: Gal4-hPPARδ chimera luciferase transactivation in COS-7 cells, Method 2; type: cell-based; details: COS-7, 24 h; for EC50: 1% Ultroser; for Emax: maximum percentage response relative to the reference GW501516, read-out: hPPARdelta % max
T1 construct: expressed in transfected cells; host or cells: COS-7 (monkey kidney fibroblasts)
T1 sequence (Q03181 211-439 limits assumed): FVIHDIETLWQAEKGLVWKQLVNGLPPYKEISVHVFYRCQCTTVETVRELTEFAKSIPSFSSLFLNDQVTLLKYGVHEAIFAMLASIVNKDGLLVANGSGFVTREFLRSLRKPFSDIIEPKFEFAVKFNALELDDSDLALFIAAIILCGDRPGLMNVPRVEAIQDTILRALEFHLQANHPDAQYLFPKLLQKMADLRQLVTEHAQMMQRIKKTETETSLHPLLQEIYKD
Description: (§1) The activation of the PPARs was evaluated in vitro on a line of monkey kidney fibroblasts (COS-7) by measuring the transcriptional activity of chimeras constituted of the DNA binding domain of the Gal4 transcription factor of yeast and the ligand binding domain of the various PPARs. The compounds were tested at doses between 10^−5 and […] on the chimeras Gal4-PPARα, γ or δ, and the corresponding EC50 values were determined.
(§2) The principle, the cells and the plasmids used for example 5 were also employed in this example. Only the application of the transfection stage is slightly different. The details are presented below.
(§3) The adherent COS-7 cells are transfected with 40 μg of DNA per 225 cm^2 dish, with a pGal4-PPAR/Gal4(RE)_TkpGL3 ratio of 1/10, in the presence of 10% fetal calf serum. The cells are then detached and seeded in the absence of serum in 384-well plates (2×10^4 cells/well) and incubated for 4 hours at 37° C. The compounds are then diluted in a 96-well plate and transferred to the 384-well plate. Activation with the test compounds is carried out for an additional 24 h at 37° C. in the presence of 1% of Ultroser™ lipid-free synthetic serum (Biosepra). These last 2 stages are automated using a Genesis Freedom 200™ station (Tecan). At the end of the experiment, the cells are lysed and the luciferase activity is determined using the Steady-Lite™ HTS (Perkin Elmer) following the supplier's recommendations.

hPPARalpha [2] = biological target: T2, hPPARalpha (Homo sapiens, UniProt Q07869); test: PPAR activation: Gal4-hPPARα chimera luciferase transactivation in COS-7 cells, Method 2; type: cell-based; details: COS-7, 24 h; for EC50: 1% Ultroser; for Emax: maximum percentage response relative to the reference phenofibric acid, read-out: hPPARalpha % max
T2 construct: expressed in transfected cells; host or cells: COS-7 (monkey kidney fibroblasts)
T2 sequence (Q07869 239-466 limits assumed): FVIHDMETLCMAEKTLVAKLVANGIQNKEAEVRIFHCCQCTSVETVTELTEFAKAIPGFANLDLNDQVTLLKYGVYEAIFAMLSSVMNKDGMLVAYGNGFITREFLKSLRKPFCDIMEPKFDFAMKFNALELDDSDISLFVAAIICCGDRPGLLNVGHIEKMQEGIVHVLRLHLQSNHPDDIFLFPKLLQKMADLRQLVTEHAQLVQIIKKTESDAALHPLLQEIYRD
Description: as §1, §2, §3

hPPARgamma [3] = biological target: T3, hPPARgamma (Homo sapiens, UniProt P37231); test: PPAR activation: Gal4-hPPARγ chimera luciferase transactivation in COS-7 cells, Method 2; type: cell-based; details: COS-7, 24 h, Method 2; for Emax: maximum percentage response relative to the reference rosiglitazone, read-out: hPPARgamma % max; for EC50: 1% Ultroser, read-out: hPPARgamma EC50
T3 construct: expressed in transfected cells; host or cells: COS-7 (monkey kidney fibroblasts)
T3 sequence (P37231 238-503 limits assumed): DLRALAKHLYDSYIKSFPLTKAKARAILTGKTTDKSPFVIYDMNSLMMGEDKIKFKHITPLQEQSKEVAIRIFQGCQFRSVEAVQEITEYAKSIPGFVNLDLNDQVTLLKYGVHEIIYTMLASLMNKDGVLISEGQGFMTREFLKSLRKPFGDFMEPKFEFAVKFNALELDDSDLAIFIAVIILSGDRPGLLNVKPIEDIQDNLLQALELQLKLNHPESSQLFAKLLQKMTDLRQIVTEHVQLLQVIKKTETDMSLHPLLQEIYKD
Description: The activation of the PPARs was evaluated in vitro on a line of monkey kidney fibroblasts (COS-7) by measuring the transcriptional activity of chimeras constituted of the DNA binding domain of the Gal4 transcription factor of yeast and the ligand binding domain of the various PPARs.
Only the application of the transfection stage is slightly different. The details are presented below.
as §3

hPPARalpha [4] = biological target: T2, hPPARalpha; test: PPAR activation: Gal4-hPPARα chimera luciferase transactivation in COS-7 cells, Method 1; type: cell-based; details: COS-7, 24 h; for Emax: maximum percentage response relative to the reference phenofibric acid, read-out: hPPARalpha % max
Description: as §1
(§4) The COS-7 cells were obtained from the ATCC and were cultivated in DMEM medium supplemented with 10% (v/v) of fetal calf serum, 100 U/ml of penicillin (Gibco, Paisley, UK) and 2 mM of L-glutamine (Gibco, Paisley, UK). The cells were incubated at 37° C. in a humid atmosphere containing 5% CO2.
(§5) The plasmids Gal4(RE)_TkpGL3, pGal4-hPPARα, pGal4-hPPARγ, pGal4-hPPARδ and pGal4-φ are described in the literature (Raspe E et al., 1999). The constructs pGal4-hPPARα, pGal4-hPPARγ and pGal4-hPPARδ were obtained by cloning DNA fragments amplified by PCR corresponding to the DEF domains of the human nuclear receptors PPARα, PPARγ and PPARδ in the pGal4-φ vector.
(§6) The COS-7 cells in suspension were transfected with 150 ng of DNA per well, with a pGal4-PPAR/Gal4(RE)_TkpGL3 ratio of 1/10, in the presence of 10% fetal calf serum. The cells were seeded in 96-well plates (4×10^4 cells/well) and then incubated at 37° C. for 24 hours. Activation with the test compounds is carried out for 24 h at 37° C. in serum-free medium. At the end of the experiment, the cells were lysed and the luciferase activity was determined using the Steady-Lite™ HTS (Perkin Elmer) following the supplier's recommendations.

hPPARdelta [5] = biological target: T1, hPPARdelta; test: PPAR activation: Gal4-hPPARδ chimera luciferase transactivation in COS-7 cells, Method 1; type: cell-based; details: COS-7, 24 h; for Emax: maximum percentage response relative to the reference GW501516, read-out: hPPARdelta % max
Description: as §1, §4, §5, §6

hPPARgamma [6] = biological target: T3, hPPARgamma; test: PPAR activation: Gal4-hPPARγ chimera luciferase transactivation in COS-7 cells, Method 1; type: cell-based; details: COS-7, 24 h; for Emax: maximum percentage response relative to the reference rosiglitazone, read-out: hPPARgamma % max
Description: as §1, §4, §5, §6

CSc1ccc(-c2ccc(C(=O)CCc3ccc(OC(C)(C)C(=O)O)c(Cl)c3Cl)s2)cc1 [Compound 54, 2-(2,3-dichloro-4-(3-(5-(4-(methylthio)phenyl)thien-2-yl)-3-oxo-propyl)phenoxy)-2-methylpropanoic acid]
EC50 (hPPARdelta [1]): 0.07 µM
Emax (hPPARdelta [1]): 107%
melting point: 171 to 172 °C
EC50 (hPPARalpha [2]): 0.15 µM
Emax (hPPARalpha [2]): 43%
Emax (hPPARgamma [3]): 62%
EC50 (hPPARgamma [3]): 0.86 µM

Cc1cc(CCC(=O)c2ccc(-c3ccc(C(F)(F)F)cc3)s2)ccc1OC(C)(C)C(=O)O [Compound 59, 2-methyl-2-(2-methyl-4-(3-oxo-3-(5-(4-(trifluoromethyl)phenyl)-thien-2-yl)propyl)phenoxy)propanoic acid]
EC50 (hPPARdelta [1]): 0.03 µM
Emax (hPPARdelta [1]): 107%
melting point: 130 to 131 °C
Emax (hPPARalpha [2]): 47%
Emax (hPPARgamma [3]): 57%
EC50 (hPPARgamma [3]): 0.23 µM

CC(C)(Oc1ccc(CCC(=O)c2ccc(-c3ccccc3)s2)c(Cl)c1Cl)C(=O)O [Compound 57, 2-(2,3-dichloro-4-(3-oxo-3-(5-phenylthien-2-yl)propyl)phenoxy)-2-methylpropanoic acid]
EC50 (hPPARdelta [1]): 0.35 µM
Emax (hPPARdelta [1]): 88%
melting point: 179 to 180 °C
EC50 (hPPARalpha [2]): 1 µM
Emax (hPPARalpha [2]): 44%
Emax (hPPARgamma [3]): 39%
EC50 (hPPARgamma [3]): 1.52 µM

CC(C)(Oc1ccc(CCC(=O)c2ccc(-c3ccc(Br)cc3)s2)c(Cl)c1Cl)C(=O)O [Compound 52, 2-(4-(3-(5-(4-bromophenyl)thien-2-yl)-3-oxopropyl)-2,3-dichloro-phenoxy)-2-methylpropanoic acid]
EC50 (hPPARdelta [1]): 0.05 µM
Emax (hPPARdelta [1]): 104%
melting point: 155 to 157 °C
EC50 (hPPARalpha [2]): 0.21 µM
Emax (hPPARalpha [2]): 53%
Emax (hPPARgamma [3]): 57%
EC50 (hPPARgamma [3]): 1.02 µM

CC(C)(Oc1ccc(CCC(=O)c2ccc(-c3ccc(C(F)(F)F)cc3)s2)cc1)C(=O)O [Compound 67, 2-(4-(3-oxo-3-(5-(4-(trifluoromethyl)phenyl)thien-2-yl)propyl)-phenoxy)-2-methylpropanoic acid]
EC50 (hPPARdelta [1]): 0.36 µM
Emax (hPPARdelta [1]): 75%
melting point: 154 to 155 °C
EC50 (hPPARalpha [2]): 0.01 µM
Emax (hPPARalpha [2]): 45%
Emax (hPPARgamma [3]): 37%
EC50 (hPPARgamma [3]): 4.82 µM

CC(C)(Oc1ccc(CCC(=O)c2ccc(-c3ccc(C(F)(F)F)cc3)s2)cc1F)C(=O)O [Compound 23, 2-(2-fluoro-4-(3-oxo-3-(5-(4-(trifluoromethyl)phenyl)thien-2-yl)propyl)phenoxy)-2-methylpropanoic acid]
melting point: 150 to 151 °C
Emax (hPPARalpha [4]): 48%
EC50 (hPPARdelta [5]): 0.016 µM
Emax (hPPARdelta [5]): 95%
EC50 (hPPARgamma [6]): 0.4 µM
Emax (hPPARgamma [6]): 49%

O=C(O)COc1ccc(CCC(=O)c2ccc(-c3ccc(C(F)(F)F)cc3)s2)c(Cl)c1Cl [Compound 15, 2-(2,3-dichloro-4-(3-oxo-3-(5-(4-(trifluoromethyl)phenyl)thien-2-yl)propyl)phenoxy)acetic acid]
melting point: 217 to 219 °C
EC50 (hPPARalpha [4]): 0.163 µM
Emax (hPPARalpha [4]): 46%
EC50 (hPPARdelta [5]): 0.253 µM
Emax (hPPARdelta [5]): 88%
EC50 (hPPARgamma [6]): 5.66 µM
Emax (hPPARgamma [6]): 32%

CC(C)(Oc1ccc(CCC(=O)c2ccc(-c3ccc(C(F)(F)F)cc3)s2)c(Cl)c1)C(=O)O [Compound 21, 2-(3-chloro-4-(3-oxo-3-(5-(4-(trifluoromethyl)phenyl)thien-2-yl)-propyl)phenoxy)-2-methylpropanoic acid]
melting point: 104 to 106 °C
EC50 (hPPARalpha [4]): 0.017 µM
Emax (hPPARalpha [4]): 50%
EC50 (hPPARdelta [5]): 0.008 µM
Emax (hPPARdelta [5]): 97%
EC50 (hPPARgamma [6]): 0.08 µM
Emax (hPPARgamma [6]): 63%

CCC(Oc1ccc(CCC(=O)c2ccc(-c3ccc(C(F)(F)F)cc3)s2)cc1F)C(=O)O (stereo not shown) [Compound 29, 2-(2-fluoro-4-(3-oxo-3-(5-(4-(trifluoromethyl)phenyl)thien-2-yl)-propyl)phenoxy)butanoic acid]
melting point: 119 to 120 °C
EC50 (hPPARalpha [4]): 0.002 µM
Emax (hPPARalpha [4]): 56%
EC50 (hPPARdelta [5]): 0.037 µM
Emax (hPPARdelta [5]): 88%
EC50 (hPPARgamma [6]): 1.27 µM
Emax (hPPARgamma [6]): 65%

O=C(CCc1ccc(OC(C(=O)O)c2ccccc2)c(Cl)c1Cl)c1ccc(-c2ccc(C(F)(F)F)cc2)s1 (stereo not shown) [Compound 17, 2-(2,3-dichloro-4-(3-oxo-3-(5-(4-(trifluoromethyl)phenyl)thien-2-yl)propyl)phenoxy)-2-phenylacetic acid]
melting point: 189 to 191 °C
EC50 (hPPARalpha [4]): 0.228 µM
Emax (hPPARalpha [4]): 5%
Emax (hPPARdelta [5]): 0%
EC50 (hPPARgamma [6]): 0.19 µM
Emax (hPPARgamma [6]): 27%

CC(C)(Oc1ccc(CCC(OCc2ccccc2)c2cc(-c3ccc(C(F)(F)F)cc3)cs2)c(Cl)c1Cl)C(=O)O (stereo not shown) [Compound 61, 2-(4-(3-(benzyloxy)-3-(4-(4-(trifluoromethyl)phenyl)thien-2-yl)propyl)-2,3-dichlorophenoxy)-2-methylpropanoic acid]
melting point: 58 to 59 °C
EC50 (hPPARalpha [4]): 0.591 µM
Emax (hPPARalpha [4]): 42%
EC50 (hPPARdelta [5]): 0.006 µM
Emax (hPPARdelta [5]): 101%
EC50 (hPPARgamma [6]): 0.03 µM
Emax (hPPARgamma [6]): 78%

CC(C)(Oc1ccc(CCC(=O)c2ccc(-c3ccc(C(F)(F)F)cc3)s2)cc1Cl)C(=O)O [Compound 19, 2-(2-chloro-4-(3-oxo-3-(5-(4-(trifluoromethyl)phenyl)thien-2-yl)-propyl)phenoxy)-2-methylpropanoic acid]
melting point: 136 to 137 °C
EC50 (hPPARalpha [4]): 0.001 µM
Emax (hPPARalpha [4]): 47%
EC50 (hPPARdelta [5]): 0.015 µM
Emax (hPPARdelta [5]): 85%
EC50 (hPPARgamma [6]): 0.18 µM
Emax (hPPARgamma [6]): 27%

CCC(Oc1ccc(CCC(=O)c2ccc(-c3ccc(C(F)(F)F)cc3)s2)c(Cl)c1Cl)C(=O)O (stereo not shown) [Compound 9, 2-(2,3-dichloro-4-(3-oxo-3-(5-(4-(trifluoromethyl)phenyl)thien-2-yl)propyl)phenoxy)butanoic acid]
melting point: 169 to 171 °C
EC50 (hPPARalpha [4]): 0.006 µM
Emax (hPPARalpha [4]): 54%
EC50 (hPPARdelta [5]): 0.019 µM
Emax (hPPARdelta [5]): 84%
EC50 (hPPARgamma [6]): 0.28 µM
Emax (hPPARgamma [6]): 41%
